Measured values as given in patent US8623855B2, “Azetidinone compounds and medical use thereof” (Zhejiang Hisun Pharmaceutical Co., Ltd., priority 2009, dated 2014).
Like-named read-outs stand apart in the source and are kept apart here.

System: hypercholesterolemia golden hamster model
Assay: In vivo pharmacodynamic screening in hypercholesterolemia model of golden hamster (plasma TC and LDL-C)
Conditions: for inhibition in vivo at 1 mg/kg / inhibition in vivo at 3 mg/kg / inhibition in vivo at 10 mg/kg / inhibition in vivo at 5 mg/kg: Mesocricetus auratus, po, 168 h; for inhibition in vivo at 1 mg/kg / inhibition in vivo at 3 mg/kg: Table 8; for LDL after administration / TC after administration / LDL-C after administration: 1 week, plasma; for reduction of plasma TC and LDL-C levels (in words): golden hamster hypercholesterolemic model, significant statistical difference; for effect of lowering cholesterol (screening result in words): in vivo pharmacodynamic screening test, Ezetimibe as positive control; for inhibition in vivo at 10 mg/kg / inhibition in vivo at 5 mg/kg: Table 12; for efficacy compared with the positive control (in words): positive control Ezetimibe
Experimental: 1. Establishment of Hypercholesterolemia Model of Golden Hamster:
The animals were subjected to acclimation feeding for 1 week with free feeding and drinking under a lighting condition of 10 h/14 h. On Day 8, the animals were raised with high fat feed (consisting of 0.5% cholesterol, 20% palm oil, 79.5% basal feed) for 1 week. Then, each animal was anesthetized by ether. After weighing, 0.5 ml blood was obtained from orbital vein, anticoagulated with heparin and centrifuged at 5000 rpm for 10 min. The plasma was collected and the levels of plasma TC (total cholesterol) and LDL-C (low density lipoprotein cholesterol) were determined by automatic biochemical analyzer. Animals with plasma TC of 9-15 mmol/L were selected as model animals (refer to the following reference for the method of animal modeling: Burrier, R. E., Smith, A. A., Mcgregor, D. G, Hoos, L. M., Zilli, D. L., Davis, H. R. The effect of acyl CoA: cholesterol acyltransferase inhibition on the uptake, esterification and secretion of cholesterol by the hamster small intestine. J. Pharm. Exp. Ther., 1995, 272, 156-163).
The animals were grouped according to TC and LDL-C levels and weight with 6 animals per group. Ezetimibe was used as positive control. The animals were intragastrically administered at a volume of 5 ml/kg for 1 week. Each animal was anesthetized by ether. After weighing, 0.5 ml blood was taken from orbital vein, anticoagulated with heparin, and centrifuged at 5000 rpm for 10 min. The plasma was collected and plasma TC (total cholesterol) and LDL-C (low density lipoprotein cholesterol) levels were determined by automatic biochemical analyzer to evaluate the efficacy of the compounds.

[1] = Table 11, 10 mg/kg intragastric
[2] = Table 11, baseline of group dosed 10 mg/kg
[3] = Table 11, baseline of group dosed 3 mg/kg

**Q.** How did the inhibition in vivo at 1 mg/kg (read-out: Reducing LDL-C %) turn out when `O=C(OC/C(=C\C[C@H]1C(=O)N(c2ccc(F)cc2)[C@@H]1c1ccc(O)cc1)c1ccc(F)cc1)c1ccc(F)cc1` [I-14(Z)] was run?
**A.** 28.6%

**Q.** What about the inhibition in vivo at 1 mg/kg (read-out: Reducing TC %) of the same compound?
**A.** 13.5%

**Q.** What about the inhibition in vivo at 3 mg/kg (read-out: Reducing LDL-C %) of the same compound?
**A.** 52.3%

**Q.** And the inhibition in vivo at 3 mg/kg (read-out: Reducing TC %)?
**A.** 44.4%

**Q.** What about the LDL after administration (Table 7, 1 mg/kg intragastric) of the same compound?
**A.** 2.56 mmol/L

**Q.** What about the TC after administration (Table 7, 1 mg/kg intragastric) of the same compound?
**A.** 9.34 mmol/L

**Q.** What about the LDL after administration (Table 7, 3 mg/kg intragastric) of the same compound?
**A.** 2.01 mmol/L

**Q.** And the TC after administration (Table 7, 3 mg/kg intragastric)?
**A.** 6.06 mmol/L

**Q.** What about the “reduction of plasma TC and LDL-C levels (in words)” value of the same compound?
**A.** can significantly reduce the plasma TC and LDL-C levels

**Q.** And the “effect of lowering cholesterol (screening result in words)” value?
**A.** have the effect of lowering cholesterol

**Q.** Which results are given for `COc1ccc([C@@H]2[C@@H](C/C=C(\COC(C)=O)c3ccc(F)cc3)C(=O)N2c2ccc(F)cc2)cc1` [I-17(Z), (3R,4S)-3-[(Z)-4-acetoxy-3-(4-fluorophenyl)-but-2-enyl]-1-(4-fluorophenyl)-4-(4-methoxyphenyl)azetidin-2-one]?
**A.** inhibition in vivo at 10 mg/kg (read-out: Reducing LDL-C %): 60.1%; inhibition in vivo at 10 mg/kg (read-out: Reducing TC %): 59.8%; LDL-C after administration [1]: 1.19; TC after administration [1]: 5.09; LDL-C before administration [2]: 2.98 ± 0.72; TC before administration [2]: 12.67 ± 1.28; reduction of plasma TC and LDL-C levels (in words): can significantly reduce the plasma TC and LDL-C levels; effect of lowering cholesterol (screening result in words): have the effect of lowering cholesterol; efficacy compared with the positive control (in words): more similar to the positive control

**Q.** Which results are given for `O=C1[C@H](C/C=C(\CO)c2ccc(F)cc2)[C@@H](c2ccc(OCc3ccccc3)cc2)N1c1ccc(F)cc1` [I-4(Z)]?
**A.** inhibition in vivo at 5 mg/kg (read-out: Reducing LDL-C %): 53.5%; inhibition in vivo at 5 mg/kg (read-out: Reducing TC %): 49.1%; LDL-C after administration (Table 11, 3 mg/kg intragastric): 1.51; TC after administration (Table 11, 3 mg/kg intragastric): 6.48; LDL-C before administration [3]: 3.25 ± 0.79; TC before administration [3]: 12.73 ± 1.27; reduction of plasma TC and LDL-C levels (in words): can significantly reduce the plasma TC and LDL-C levels; effect of lowering cholesterol (screening result in words): have the effect of lowering cholesterol; efficacy compared with the positive control (in words): more similar to the positive control
